According to patent US8889704B2 (Array BioPharma Inc., priority 2011, dated 2014):
Counter-ions that a name gives are not always drawn.

How the values were obtained:
Type in all cases: biochemical
[1] = target: PIM-1 (Homo sapiens, UniProt P11309); test: Enzyme PIM-1 Assay ([33P]ATP incorporation into PIM2tide, filter plate); settings: averaged IC50; 35 μM ATP, 7.5 μM PIM2tide, 0.25 nM PIM-1, 60 min at 22° C.
Description: (§1) The assay for the determination of PIM-1 activity is based on the incorporation of [^33P]PO4 from [γ-^33P]ATP into PIM2tide substrate and capture of the radiolabeled peptide onto a Whatman P81 (phosphocellulose) filter plate. The amount of radiolabeled product is then measured by liquid scintillation counting. The final buffer conditions were as follows: 20 mM K^+MOPS, pH 7.4, 10 mM MgCl2, 0.005% Tween-20, 1 mM DTT. Assay mixtures contained 35 μM [γ-^33P]ATP (20 μCi/mL), 7.5 μM PIM2tide and 0.25 nM PIM-1 in a total volume of 50 μL. Incubations were carried out for 60 min at 22° C. and quenched with 75 μL of 200 mM H3PO4, filtered through a Whatman P81 plate and washed (1×200 μL and 5×100 μL) with 200 mM H3PO4. Fifty μL of liquid scintillation cocktail were then added per well, and the plate was counted for 30 s/well using a TopCount NXT.
(§2) Compounds were prepared at 50× the final concentration in DMSO by conducting 3-fold serial dilutions from a 500-μM intermediate dilution to give a 10-point dosing curve having a high dose of 10 μM. One-μL aliquots of these were then transferred to the assay mixtures above to give a final concentration of DMSO of 2%. A standard or reference compound was typically included on each assay plate to validate that plate. For each plate, percent of control (POC) values were calculated for each well. IC50 values were estimated from the POC values using a standard 4-parameter logistic model. The IC50 is defined as the concentration of inhibitor at which the POC equals 50 for the fitted curve.

[2] = target: T1, GST-tagged recombinant full-length human Pim-2 (Homo sapiens, UniProt Q9P1W9); test: PIM-2 Assay (as Example A); settings: averaged IC50; 4 μM ATP, 1.0 μM PIM2tide, 1.5 nM Pim-2
T1 construct: GST-tagged recombinant full-length human Pim-2; GST
T1 sequence (Q9P1W9 whole entry): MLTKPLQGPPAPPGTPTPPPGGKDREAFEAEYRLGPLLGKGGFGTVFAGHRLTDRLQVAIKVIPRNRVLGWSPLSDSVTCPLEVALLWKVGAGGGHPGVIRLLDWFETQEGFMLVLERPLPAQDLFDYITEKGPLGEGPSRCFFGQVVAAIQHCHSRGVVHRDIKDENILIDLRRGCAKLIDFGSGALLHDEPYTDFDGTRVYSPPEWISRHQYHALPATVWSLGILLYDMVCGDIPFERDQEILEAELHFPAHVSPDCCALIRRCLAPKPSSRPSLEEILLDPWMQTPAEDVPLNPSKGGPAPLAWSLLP
Description: as §1, §2
Assay was performed as described in Example A, using 4 μM [γ-^33P]ATP (20 μCi/mL), 1.0 μM PIM2tide and 1.5 nM GST-tagged recombinant full-length human Pim-2 in place of PIM-1.

[3] = target: recombinant rat PIM-3 (Rattus norvegicus, UniProt O70444); test: PIM-3 Assay (as Example A); settings: averaged IC50; 30 μM ATP, 3.75 μM PIM2tide, 0.5 nM PIM-3
Description: as §1, §2
Assay was performed as described in Example A, using 30 μM [γ-^33P]ATP (20 μCi/mL), 3.75 μM PIM2tide and 0.5 nM recombinant rat PIM-3 in place of PIM-1.

PIM-1, sequence (P11309 whole entry, species assumed): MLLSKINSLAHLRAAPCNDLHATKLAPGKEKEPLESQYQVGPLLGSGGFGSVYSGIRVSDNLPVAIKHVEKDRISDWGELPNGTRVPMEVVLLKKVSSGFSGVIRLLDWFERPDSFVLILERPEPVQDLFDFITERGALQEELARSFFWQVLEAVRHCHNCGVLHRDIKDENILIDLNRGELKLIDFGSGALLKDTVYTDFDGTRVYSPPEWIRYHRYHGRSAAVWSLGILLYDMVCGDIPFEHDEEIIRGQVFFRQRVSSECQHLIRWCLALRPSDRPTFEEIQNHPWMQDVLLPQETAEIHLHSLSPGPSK

| Structure (SMILES) | IC50 [1] [nM] | IC50 [2] [nM] | IC50 [3] [nM] |
| --- | --- | --- | --- |
| C[C@H](CO)Oc1cccc2ccc(-c3nnc4ccc([C@@H](N5CC[C@H](NCC6CC6)C5)C(F)(F)F)cn34)nc12 [Example 230, dihydrochloride] | 0.64 | 211 | 3.2 |
| CCC1(N)CCN([C@H](c2ccc3nnc(-c4ccc5cccc(OC)c5n4)n3c2)C(F)(F)F)C1 (single isomer, unassigned; diastereomer 2) [Example 252, dihydrochloride] | 4.05 | > 1000 | 24 |
| COc1cccc2ccc(-c3nnc4ccc([C@@H](N5CC[C@@](N)(CF)C5)C(F)(F)F)cn34)nc12 (single isomer, unassigned) [Example 169] | 6.65 | > 100 | 36 |
| COC[C@@H](C)Oc1cccc2ccc(-c3nnc4ccc([C@@H](N5CC[C@H](N)C5)C(F)(F)F)cn34)nc12 [Example 140, (S)-1-((R)-2,2,2-trifluoro-1-(3-(8-((R)-1-methoxypropan-2-yloxy)quinolin-2-yl)-[1,2,4]triazolo[4,3-a]pyridin-6-yl)ethyl)pyrrolidin-3-amine dihydrochloride] | 0.12 | 54 | 0.5 |
| Cn1cc(-c2cc3nc(-c4nnc5ccc([C@@H](N6CC[C@H](N)C6)C(F)(F)F)cn45)ccc3cc2F)cn1 [Example 173, (S)-1-((R)-2,2,2-trifluoro-1-(3-(6-fluoro-7-(1-methyl-1H-pyrazol-4-yl)quinolin-2-yl)-[1,2,4]triazolo[4,3-a]pyridin-6-yl)ethyl)pyrrolidin-3-amine tri-hydrochloride] | 0.13 | > 100 | 0.4 |
| Cc1c(OC(C)C)ccc2ccc(-c3nnc4ccc([C@@H](N5CC[C@H](N)C5)C(F)(F)F)cn34)nc12 [Example 116, (S)-1-((R)-2,2,2-trifluoro-1-(3-(7-isopropoxy-8-methylquinolin-2-yl)-[1,2,4]triazolo[4,3-a]pyridin-6-yl)ethyl)pyrrolidin-3-amine hydrochloride] | 0.24 | 76 | 1.8 |
| CO[C@H](C)COc1cc(-c2nnc3ccc([C@@H](N4CC[C@H](N)C4)C(F)(F)F)cn23)nc2ccccc12 [Example 291, (S)-1-((R)-2,2,2-trifluoro-1-(3-(4-((R)-2-methoxypropoxy)quinolin-2-yl)-[1,2,4]triazolo[4,3-a]pyridin-6-yl)ethyl)pyrrolidin-3-amine formate] | 0.19 | 82 | 0.5 |
| N[C@H]1CCN([C@H](c2ccc3nnc(-c4ccc5cc(F)cc(OCCO)c5n4)n3c2)C(F)(F)F)C1 [Example 254, 2-(2-(6-((R)-1-((S)-3-aminopyrrolidin-1-yl)-2,2,2-trifluoroethyl)-[1,2,4]triazolo[4,3-a]pyridin-3-yl)-6-fluoroquinolin-8-yloxy)ethanol dihydrochloride] | 0.25 | 273 | 0.9 |
| CCOc1cc2nc(-c3nnc4ccc([C@H](N5CCC(N)(CC)C5)C(F)(F)F)cn34)ccc2cc1F (single isomer, unassigned; diastereomer 1) [Example 251, dihydrochloride] | 0.75 | 102 | 0.8 |
| N[C@H]1CCN([C@H](c2ccc3nnc(-c4ccc5cccc(OCCO)c5n4)n3c2)C(F)(F)F)C1 [Example 219, 2-(2-(6-((R)-1-((S)-3-aminopyrrolidin-1-yl)-2,2,2-trifluoroethyl)-[1,2,4]triazolo[4,3-a]pyridin-3-yl)quinolin-8-yloxy)ethanol dihydrochloride] | 0.26 | 253 | 1.2 |
| COC[C@@H](C)Oc1cccc2ccc(-c3nnc4ccc([C@@H](N5CC[C@H](N(C)C)C5)C(F)(F)F)cn34)nc12 [Example 303, (S)—N,N-dimethyl-1-((R)-2,2,2-trifluoro-1-(3-(8-((R)-1-methoxypropan-2-yloxy)quinolin-2-yl)-[1,2,4]triazolo[4,3-a]pyridin-6-yl)ethyl)pyrrolidin-3-amine dihydrochloride] | 1.33 | 242 | 5.85 |
| COc1ccc2ccc(-c3nnc4ccc([C@@H](N5CC[C@H](N)C5)C(F)(F)F)cn34)nc2c1 [Example 139, (S)-1-((R)-2,2,2-trifluoro-1-(3-(7-methoxyquinolin-2-yl)-[1,2,4]triazolo[4,3-a]pyridin-6-yl)ethyl)pyrrolidin-3-amine dihydrochloride] | 0.58 | > 100 | 4.9 |
| CSCCOc1ccc2ccc(-c3nnc4ccc([C@@H](N5CC[C@H](N)C5)C(F)(F)F)cn34)nc2c1 [Example 281, (S)-1-((R)-2,2,2-trifluoro-1-(3-(7-(2-(methylthio)ethoxy)quinolin-2-yl)-[1,2,4]triazolo[4,3-a]pyridin-6-yl)ethyl)pyrrolidin-3-amine hydrochloride] | 0.26 | 242 | 0.7 |
| CC(C)(O)COc1cc2nc(-c3nnc4ccc([C@H](N5CC[C@](C)(N)C5)C(F)(F)F)cn34)ccc2cc1F [Example 301, 1-(2-(6-((S)-1-((S)-3-amino-3-methylpyrrolidin-1-yl)-2,2,2-trifluoroethyl)-[1,2,4]triazolo[4,3-a]pyridin-3-yl)-6-fluoroquinolin-7-yloxy)-2-methylpropan-2-ol dihydrochloride] | 0.2 | 14 | 0.2 |
| CC(C)N[C@H]1CCN([C@H](c2ccc3nnc(-c4ccc5cccc(O[C@H](C)CO)c5n4)n3c2)C(F)(F)F)C1 [Example 231, dihydrochloride] | 0.88 | 429 | 3.5 |
| CCOc1cc2nc(-c3nnc4ccc([C@H](C)N5CC[C@H](N)C5)cn34)ccc2cc1F [Example 310, (S)-1-((S)-1-(3-(7-ethoxy-6-fluoroquinolin-2-yl)-[1,2,4]triazolo[4,3-a]pyridin-6-yl)ethyl)pyrrolidin-3-amine trihydrochloride] | 0.46 | 415 | 1.1 |
| CC1(N)CCN(C(c2ccc3nnc(-c4ccc5cccc(OCC6CC6)c5n4)n3c2)C(F)(F)F)C1 (stereo not drawn) [Example 27, 1-(1-(3-(8-(cyclopropylmethoxy)quinolin-2-yl)-[1,2,4]triazolo[4,3-a]pyridin-6-yl)-2,2,2-trifluoroethyl)-3-methylpyrrolidin-3-amine dihydrochloride] | 0.8 | 334 | 25 |
| Cc1cc(-c2ccc3ccc(-c4nnc5ccc([C@@H](N6CC[C@H](N)C6)C(F)(F)F)cn45)nc3c2C)n(C)n1 [Example 213, (3S)-1-((1R)-1-(3-(7-(1,3-dimethyl-1H-pyrazol-5-yl)-8-methylquinolin-2-yl)-[1,2,4]triazolo[4,3-a]pyridin-6-yl)-2,2,2-trifluoroethyl)pyrrolidin-3-amine] | 0.64 | > 1000 | 8 |
| COc1cc(F)cc2ccc(-c3nnc4ccc([C@@H](N5CC[C@H](N)C5)C(F)(F)F)cn34)nc12 [Example 115, (S)-1-((R)-2,2,2-trifluoro-1-(3-(6-fluoro-8-methoxyquinolin-2-yl)-[1,2,4]triazolo[4,3-a]pyridin-6-yl)ethyl)pyrrolidin-3-amine hydrochloride] | 0.29 | > 100 |  |
| CCOc1cc2nc(-c3nnc4ccc([C@@H](N5CC[C@H](N)C5)C(F)(F)F)cn34)ccc2cc1F [Example 133, (S)-1-((R)-1-(3-(7-ethoxy-6-fluoroquinolin-2-yl)-[1,2,4]triazolo[4,3-a]pyridin-6-yl)-2,2,2-trifluoroethyl)pyrrolidin-3-amine hydrochloride] | 0.16 | 77 |  |
| CC(C)(C)OC(=O)N[C@@H]1CCN([C@@H](c2ccc3nnc(-c4ccc5ccc(C(=O)O)cc5n4)n3c2)C(F)(F)F)C1 [Example 85, 2-(6-((S)-1-((R)-3-(tert-butoxycarbonylamino)pyrrolidin-1-yl)-2,2,2-trifluoroethyl)-[1,2,4]triazolo[4,3-a]pyridin-3-yl)quinoline-7-carboxylic acid] |  |  | 18 |
| COCCc1cc2nc(-c3nnc4ccc([C@H](N5CC[C@](C)(N)C5)C(F)(F)F)cn34)ccc2cc1F [Example 311, (S)-3-methyl-1-((S)-2,2,2-trifluoro-1-(3-(6-fluoro-7-(2-methoxyethyl)quinolin-2-yl)-[1,2,4]triazolo[4,3-a]pyridin-6-yl)ethyl)pyrrolidin-3-amine] |  | 50 |  |
